{"source": "patent US8193235B2", "about": "“Compositions and methods for establishing and maintaining stem cells in an undifferentiated state” (University of Kansas, priority 2009, dated 2012)", "key": {"Ezh2−/− ES cells": {"test_system": "Ezh2−/− ES cells", "assay": "Ezh2−/− ES cells on collagen-IV without LIF", "assay_type": "cell-based, mouse", "settings": "absence of LIF", "procedure": "Ezh2^−/− ES Cells. Ezh2^−/− cells, passage 6, were maintained on irradiated MEF feeders in standard ES medium (DMEM; Dulbecco's modified Eagle's medium) supplemented with 15% heat-inactivated fetal calf serum, 0.1 mM 2-mercaptoethanol, 2 mM L-glutamine, 0.1 mM non-essential amino acid, 1% of nucleoside mix (100× stock, Sigma), 1000 U/mi LIF and 50 U/ml Penicillin/Streptomycin. For experiments involving Gö6983, Ezh2^−/− cells were passed once without feeders and used for subsequent analysis. For experiments on collagen IV, ˜3×10^4 Ezh2^−/− cells were plated in each well of a six-well tissue culture plate in the presence or absence of LIF and Gö6983."}, "β-catenin": {"test_system": "β-catenin", "assay": "Cytosolic β-catenin stabilization assay", "assay_type": "cell-based, mouse", "settings": "mESCs", "procedure": "Cytosolic β-Catenin Stabilization Assay. ES cells were treated with Wnt3A-conditioned medium or Gö6983 or LIF for 10 hours, and lysed hypotonically on ice with 1× TE (pH 7.4) with protease inhibitors. Lysates were centrifuged at 100,000 g at 4° C. for 45 minutes to collect and analyze cytosolic fractions."}, "STAT3": {"test_system": "STAT3", "assay": "STAT3 phosphorylation, Western blot", "assay_type": "cell-based, mouse", "settings": "E14 cells", "procedure": "(§1) E14 ES Cell Cultures. Cells were grown in ES-IMDM media (Lonza, Walkersville, Md.) in a feeder-free condition. ES-IMDM was supplemented with 15% serum, 10^5 U/100 ml of LIF (ESGRO, Millipore, Calif.) and 0.0124% monothioglycerol (MTG; Sigma Aldrich). Cells were grown for 3-5 days with change of medium every day. For inducing differentiation in monolayer culture and to determine the effect of Gö6983 in preventing differentiation, E14 cells were cultured on gelatin-coated plastics for 8 days without LIF. Details of experiments performed at clonal-density are described herein. To maintain E14 cells with Gö6983, serum supplemented ES-IMDM was used in the presence of 5 μM Gö6983 and was passed after every 3-5 days. For all assays involving elucidation of different signaling mechanism responsible for maintenance of pluripotency, cells from a ˜70% confluent ES culture plate were washed two times with 1× phosphate-buffered saline (PBS), trypsinized and plated on a 6-well tissue culture plate and treated with or without LIF or Gö6983 or different inhibitors for ˜10 hours followed by preparation of protein lysates and RNA. The PKCζ knocked-down E14 cells that were generated in this study were maintained in serum supplemented ES-IMDM on gelatin-coated plates in the absence of Gö6983 or LIF or any other inhibitor and passed after 3-5 days. […]"}, "p90Rsk1 (Rsk1)": {"test_system": "p90Rsk1 (Rsk1)", "assay": "Phosphorylation of p90Rsk1", "assay_type": "cell-based, mouse", "settings": "Gö6983 alone", "procedure": "Western Blot Analysis. Whole cell lysates were prepared in SDS-gel loading buffer and resolved by 10% PAGE. The antibodies used for this study included β-actin Clone AC-15 from Sigma; p-STAT3 (Tyr705), p-p44/42 MAPK (tyr202/tyr204), p44/42 MAPK, GSK3β, Phospho Akt (Ser473), Akt, p-NFκβ p65 (Ser536), c-Myc, p-c-Myc (Thr58/Ser62), p-p90RSK (Thr359/Ser363), RSK1, Suz12 (D39F6), and Ezh2 (AC22) from Cell Signaling Technology; STAT3 (C-20), Oct-4 (C-10), Nanog (M-149), PKC α (C-20), PKC βI (C-16), PKC βII (C-18), PKC γ (C-19), PKC δ (C-20), PKC ζ (c-20), p-PKC ζ (Thr 410)-R, p-NFκβ p65 (ser311), and RelA (p65) from Santa Cruz Biotechnology; p-LGL1/LGL2 (S650/S654), SSEA4and H3K4Me3 from Abcam; LGL2 (M06), clone 4G2 from Abnova; β-Catenin from BD Transduction Laboratories, and H3K27Me3 and H3K9Me3 from Millipore."}, "endothelial cells": {"test_system": "endothelial cells", "settings": "Dutta, et al. (2008); cited from earlier work"}, "Stat3−/− ES cells": {"test_system": "Stat3−/− ES cells", "assay": "Stat3−/− ES cells in serum-free N2B27 medium", "assay_type": "cell-based, mouse", "procedure": "Stat3^−/− ES Cells. Passage 12 Stat3^−/− ES cells were maintained on N2B27 medium with 1 μM PD0325901 and 3 μM CHIR99021 and passaged every 3-4 days. For studies involving Gö6983, around 1-2×10^4 cells were plated on 6-well plates having N2B27 medium with or without 5 μM Gö6983 and analyzed for the expression of pluripotency markers."}, "129/Sv MEFs": {"test_system": "129/Sv MEFs", "assay": "Generation of iPS cells from MEFs", "assay_type": "cell-based, mouse", "procedure": "Generation of iPS Cells. iPSCs were derived using lentiviral vectors (STEMGENT), expressing four mouse transcription factors (Oct4, Sox2, Klf4 […] c-Myc) under the control of the doxycycline (Dox)-inducible tetO operator. 129/Sv MEFs were infected with viral mix following manufacturer's protocol. Twenty hours post-transduction, cells were reseeded in ES cell growth medium with either LIF or Gö6983 at a density of 5×10^4 cells per well of a 6-well plate and treated with Dox (2 μg/ml) for 48 hours. To determine the phenotype of the iPS colonies, expression of two pluripotency markers, Nanog and Rex-1, were analyzed. For further analysis, each visible iPS colony was manually picked, trypsinized, cells were re-plated at clonal and higher density in medium with Gö6983 and the expression of pluripotent markers were confirmed by RT-PCR and immunofluorescence. For chimera generation, cells from two different iPS clones were propagated at clonal density with Gö6983, expanded for four passages and were injected into blastocysts."}, "ERK1/2": {"test_system": "ERK1/2", "assay": "ERK1/2 phosphorylation in ES cells", "assay_type": "cell-based, mouse", "settings": "Gö6983 alone", "procedure": "as §1"}}, "data": [{"smiles": "COc1ccc2c(c1)c(C1=C(c3c[nH]c4ccccc34)C(=O)NC1=O)cn2CCCN(C)C", "note": "[Gö6983, 3-[1-[3-(dimethylamino)propyl]5-methoxy-1H-indol-3-yl]-4-(1H-indol-3-yl)-1H-pyrrole-2,5-dione]", "values": [{"measurement": "collagen-IV-induced Ezh2−/− cell differentiation", "setting": "Ezh2−/− ES cells", "value": "completely inhibited"}, {"measurement": "marker expression in Ezh2−/− cells on collagen-IV", "setting": "Ezh2−/− ES cells", "value": "maintained expression of pluripotency markers without the induction of developmental regulator genes"}, {"measurement": "β-catenin stabilization", "setting": "β-catenin", "value": "did not stabilize"}, {"measurement": "STAT3 phosphorylation", "setting": "STAT3", "value": "did not induce"}, {"measurement": "phosphorylation of Rsk1", "setting": "p90Rsk1 (Rsk1)", "value": "not inhibited"}, {"measurement": "angiogenic signal-induced VEGFR1 expression in endothelial cells", "setting": "endothelial cells", "value": "inhibits angiogenic signal-induced VEGFR1 expression"}, {"measurement": "differentiation of Stat3−/− ES cells", "setting": "Stat3−/− ES cells", "value": "efficiently prevented differentiation"}, {"measurement": "efficiency of obtaining matured iPSC colonies compared to LIF", "setting": "129/Sv MEFs; FIG. 4B", "value": "three fold higher"}, {"measurement": "time to appearance of ES cell-like iPSC colonies", "setting": "129/Sv MEFs; MEFs with Oct4, Sox2, KLF4, cMyc", "value": 12, "unit": "days"}, {"measurement": "rate of obtaining iPSC colonies compared to LIF", "setting": "129/Sv MEFs; colonies defined by Nanog and Rex-1, FIG. 4A", "value": "significantly faster rate"}, {"measurement": "propagation of iPSCs at clonal density", "setting": "129/Sv MEFs; with Gö6983", "value": "readily propagated at clonal density"}, {"measurement": "ERK1/2 phosphorylation", "setting": "ERK1/2", "value": "did not inhibit"}]}]}
